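Each compound was tested at five concentrations against cells in 96-well plates for 48 hours. GI50: concentration for 50% inhibition of growth.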 Activity calls are given as the source filed them. Cut-off read from the data, not from the text of the source: active = GI50 up to about 1.1 µM and inactive = higher.
How the values were obtained:
Assay in all cases: DTP human tumour cell line panel, 48 h
SNB-78 = test system: SNB-78
HOP-92 = test system: HOP-92
XF498 = test system: XF498
M19-MEL = test system: M19-MEL
HOP-62 = test system: HOP-62
A549 = test system: A549
HT-29 = test system: HT-29
SK-MEL-5 = test system: SK-MEL-5
RXF 631 = test system: RXF 631
HOP-18 = test system: HOP-18
KM-20L2 = test system: KM-20L2
SK-MEL-28 = test system: SK-MEL-28
SR = test system: SR
SNB-75 = test system: SNB-75
SW-620 = test system: SW-620
SF-268 = test system: SF-268
KM12 = test system: KM12
IGROV-1 = test system: IGROV-1
UACC-257 = test system: UACC-257
HCT-116 = test system: HCT-116
TK-10 = test system: TK-10
U-251 = test system: U-251
SNB-19 = test system: SNB-19
SK-OV-3 = test system: SK-OV-3
CCRF-CEM = test system: CCRF-CEM
MOLT-4 = test system: MOLT-4
NCI-H460 = test system: NCI-H460
CAKI-1 = test system: CAKI-1
UACC-62 = test system: UACC-62
OVCAR-5 = test system: OVCAR-5
M14 = test system: M14
NCI-H522 = test system: NCI-H522
COLO 205 = test system: COLO 205
EKVX = test system: EKVX
UO-31 = test system: UO-31
ACHN = test system: ACHN
RXF 393 = test system: RXF 393
NCI-H23 = test system: NCI-H23
OVCAR-4 = test system: OVCAR-4
DLD-1 = test system: DLD-1
NCI-H226 = test system: NCI-H226
LOX IMVI = test system: LOX IMVI
HCT-15 = test system: HCT-15
LXFL 529 = test system: LXFL 529
SN12C = test system: SN12C
SF-295 = test system: SF-295
K562 = test system: K562
RPMI-8226 = test system: RPMI-8226
SK-MEL-2 = test system: SK-MEL-2
OVCAR-8 = test system: OVCAR-8
SF-539 = test system: SF-539
DMS-114 = test system: DMS-114
DMS-273 = test system: DMS-273
A498 = test system: A498
HL-60 = test system: HL-60
Malme-3M = test system: Malme-3M
786-0 = test system: 786-0
HCC 2998 = test system: HCC 2998

Question: How did the GI50 (SNB-78) turn out when `NNC(=S)N/N=C(\c1nc2ccc(Cl)cc2nc1O)C(O)c1ccc(Cl)cc1Cl` (configuration not stated) was run?
Answer: > 100 µM (inactive)

Question: What about the GI50 (HOP-92) of the same compound?
Answer: > 100 µM (inactive)

Question: What about the GI50 (XF498) of the same compound?
Answer: > 100 µM (inactive)

Question: And the GI50 (M19-MEL)?
Answer: > 100 µM (inactive)

Question: And the GI50 (HOP-62)?
Answer: > 100 µM (inactive)

Question: And the GI50 (A549)?
Answer: > 100 µM (inactive)

Question: And the GI50 (HT-29)?
Answer: > 100 µM (inactive)

Question: What about the GI50 (SK-MEL-5) of the same compound?
Answer: > 100 µM (inactive)

Question: And the GI50 (RXF 631)?
Answer: > 100 µM (inactive)

Question: And the GI50 (HOP-18)?
Answer: > 100 µM (inactive)

Question: And the GI50 (KM-20L2)?
Answer: > 100 µM (inactive)

Question: What about the GI50 (SK-MEL-28) of the same compound?
Answer: > 100 µM (inactive)

Question: And the GI50 (SR)?
Answer: > 100 µM (inactive)

Question: And the GI50 (SNB-75)?
Answer: > 100 µM (inactive)

Question: And the GI50 (SW-620)?
Answer: > 100 µM (inactive)

Question: And the GI50 (SF-268)?
Answer: > 100 µM (inactive)

Question: What about the GI50 (KM12) of the same compound?
Answer: > 100 µM (inactive)

Question: And the GI50 (IGROV-1)?
Answer: > 100 µM (inactive)

Question: And the GI50 (UACC-257)?
Answer: > 100 µM (inactive)

Question: What about the GI50 (HCT-116) of the same compound?
Answer: > 100 µM (inactive)

Question: What about the GI50 (TK-10) of the same compound?
Answer: > 100 µM (inactive)

Question: What about the GI50 (U-251) of the same compound?
Answer: > 100 µM (inactive)

Question: And the GI50 (SNB-19)?
Answer: > 100 µM (inactive)

Question: What about the GI50 (SK-OV-3) of the same compound?
Answer: > 100 µM (inactive)

Question: And the GI50 (CCRF-CEM)?
Answer: > 100 µM (inactive)

Question: And the GI50 (MOLT-4)?
Answer: > 100 µM (inactive)

Question: What about the GI50 (NCI-H460) of the same compound?
Answer: > 100 µM (inactive)

Question: What about the GI50 (CAKI-1) of the same compound?
Answer: > 100 µM (inactive)

Question: And the GI50 (UACC-62)?
Answer: > 100 µM (inactive)

Question: And the GI50 (OVCAR-5)?
Answer: > 100 µM (inactive)

Question: What about the GI50 (M14) of the same compound?
Answer: > 100 µM (inactive)

Question: What about the GI50 (NCI-H522) of the same compound?
Answer: > 100 µM (inactive)

Question: What about the GI50 (COLO 205) of the same compound?
Answer: > 100 µM (inactive)

Question: And the GI50 (EKVX)?
Answer: > 100 µM (inactive)

Question: And the GI50 (UO-31)?
Answer: > 100 µM (inactive)

Question: What about the GI50 (ACHN) of the same compound?
Answer: > 100 µM (inactive)

Question: What about the GI50 (RXF 393) of the same compound?
Answer: > 100 µM (inactive)

Question: And the GI50 (NCI-H23)?
Answer: > 100 µM (inactive)

Question: What about the GI50 (OVCAR-4) of the same compound?
Answer: > 100 µM (inactive)

Question: What about the GI50 (DLD-1) of the same compound?
Answer: > 100 µM (inactive)

Question: What about the GI50 (NCI-H226) of the same compound?
Answer: > 100 µM (inactive)

Question: And the GI50 (LOX IMVI)?
Answer: > 100 µM (inactive)

Question: What about the GI50 (HCT-15) of the same compound?
Answer: > 100 µM

Question: And the GI50 (LXFL 529)?
Answer: > 100 µM (inactive)

Question: What about the GI50 (SN12C) of the same compound?
Answer: > 100 µM (inactive)

Question: What about the GI50 (SF-295) of the same compound?
Answer: > 100 µM (inactive)

Question: What about the GI50 (K562) of the same compound?
Answer: > 100 µM (inactive)

Question: What about the GI50 (RPMI-8226) of the same compound?
Answer: > 100 µM (inactive)

Question: What about the GI50 (SK-MEL-2) of the same compound?
Answer: > 100 µM (inactive)

Question: What about the GI50 (OVCAR-8) of the same compound?
Answer: > 100 µM (inactive)

Question: And the GI50 (SF-539)?
Answer: > 100 µM (inactive)

Question: What about the GI50 (DMS-114) of the same compound?
Answer: > 100 µM (inactive)

Question: And the GI50 (DMS-273)?
Answer: > 100 µM (inactive)

Question: What about the GI50 (A498) of the same compound?
Answer: > 100 µM (inactive)

Question: What about the GI50 (HL-60) of the same compound?
Answer: > 100 µM (inactive)

Question: And the GI50 (Malme-3M)?
Answer: > 100 µM (inactive)

Question: And the GI50 (786-0)?
Answer: > 100 µM (inactive)

Question: Which results are given for `COC(=O)C(=O)C(C(=O)C1=NS(=O)(=O)c2cc(S(N)(=O)=O)c(Cl)cc2N1)c1nc2ccc(C(=O)c3ccccc3)cc2nc1O` (configuration not stated)?
Answer: GI50 (SNB-78): 85.1 µM (inactive); GI50 (XF498): 39 µM (inactive); GI50 (M19-MEL): > 100 µM (inactive); GI50 (A549): > 100 µM (inactive); GI50 (HT-29): > 100 µM (inactive); GI50 (SK-MEL-5): 40.2 µM (inactive); GI50 (RXF 631): 86.9 µM (inactive); GI50 (HOP-18): > 100 µM (inactive); GI50 (KM-20L2): > 100 µM (inactive); GI50 (SK-MEL-28): > 100 µM (inactive); GI50 (SR): 47.9 µM (inactive); GI50 (SW-620): > 100 µM (inactive); GI50 (SF-268): > 100 µM (inactive); GI50 (KM12): 67.6 µM (inactive); GI50 (IGROV-1): > 100 µM (inactive); GI50 (UACC-257): 71.6 µM (inactive); GI50 (HCT-116): > 100 µM (inactive); GI50 (TK-10): > 100 µM (inactive); GI50 (U-251): > 100 µM (inactive); GI50 (SNB-19): > 100 µM (inactive); GI50 (CCRF-CEM): 75.5 µM (inactive); GI50 (MOLT-4): 48.6 µM (inactive); GI50 (HCC 2998): > 100 µM (inactive); GI50 (NCI-H460): > 100 µM (inactive); GI50 (CAKI-1): 57.8 µM (inactive); GI50 (UACC-62): 63.2 µM (inactive); GI50 (OVCAR-5): 58.7 µM (inactive); GI50 (M14): > 100 µM (inactive); GI50 (NCI-H522): 37.2 µM (inactive); GI50 (COLO 205): > 100 µM (inactive); GI50 (EKVX): > 100 µM (inactive); GI50 (UO-31): 79.4 µM (inactive); GI50 (ACHN): > 100 µM (inactive); GI50 (RXF 393): > 100 µM (inactive); GI50 (NCI-H23): 2.6 µM (inactive); GI50 (OVCAR-4): 81.5 µM (inactive); GI50 (NCI-H226): > 100 µM (inactive); GI50 (HCT-15): > 100 µM; GI50 (LXFL 529): 38.9 µM (inactive); GI50 (SN12C): > 100 µM (inactive); GI50 (SF-295): 72.4 µM (inactive); GI50 (K562): 40 µM (inactive); GI50 (RPMI-8226): > 100 µM (inactive); GI50 (SK-MEL-2): > 100 µM (inactive); GI50 (OVCAR-8): 59 µM (inactive); GI50 (SF-539): 90.6 µM (inactive); GI50 (DMS-273): > 100 µM (inactive); GI50 (A498): 51.5 µM (inactive); GI50 (Malme-3M): > 100 µM (inactive); GI50 (786-0): > 100 µM (inactive)
